{"source": "patent US20230085307A1", "about": "“PYRIDAZINONE COMPOUND AND HERBICIDE” (NISSAN CHEMICAL CORPORATION, priority 2019, published 2023)", "key": {"lambsquarters [1]": {"system": "lambsquarters", "assay": "Test Example 5: herbicidal effect by foliage application, plastic box (Table 20, symbol O)", "format": "in vivo, lambsquarters (Chenopodium album)", "settings": "320 g/ha, foliage application after 14-day growth, evaluated three weeks after application", "how_it_was_run": "(§1)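 Sow seeds spot-wise in sterilized diluvial soil; cover with ~1.5 cm soil. Grow 14 days in greenhouse, 25° C. to 30° C. Spray foliage with emulsion diluted to predetermined amount. Rate effect after 3 weeks.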"}, "barnyard grass [2]": {"system": "barnyard grass", "assay": "Test Example 5: herbicidal effect by foliage application, plastic box (Table 20, symbol H)", "format": "in vivo, barnyard grass (Echinochloa crus-galli)", "settings": "320 g/ha, foliage application after 14-day growth, evaluated three weeks after application", "how_it_was_run": "as §1"}, "blackgrass [3]": {"system": "blackgrass", "assay": "Test Example 4: herbicidal effect by soil treatment (Table 19, symbol J)", "format": "in vivo, blackgrass (Alopecurus myosuroides)", "settings": "amount of applied herbicide 320 g/ha", "how_it_was_run": "(§2)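 Soil-surface application: an emulsion agent diluted with water to the predetermined dose is sprayed uniformly over seeds lying under roughly 1.5 cm of sterilized diluvial soil. Boxes stay in a greenhouse at 25° C. to 30° C. Three weeks later, each species is graded on previously defined criteria.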"}, "velvetleaf [4]": {"system": "velvetleaf", "assay": "Test Example 5: herbicidal effect by foliage application, plastic box (Table 20, symbol M)", "format": "in vivo, velvetleaf (Abutilon theophrasti)", "settings": "320 g/ha, foliage application after 14-day growth, evaluated three weeks after application", "how_it_was_run": "as §1"}, "barnyard grass [5]": {"system": "barnyard grass", "assay": "Test Example 3: herbicidal effect by foliage application, Wagner pot (Table 18, symbol H)", "format": "in vivo, barnyard grass (Echinochloa crus-galli)", "settings": "320 g/ha", "how_it_was_run": "(§3)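 Plants were sown in alluvial soil held under 0.1–0.5 cm standing water and grown 14 days in a greenhouse at 25–30 °C. An emulsifiable formulation, water-diluted to the set dose, was then sprayed onto the foliage, and effects were scored three weeks later using previously defined criteria.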"}, "wild oat [6]": {"system": "wild oat", "assay": "Test Example 5: herbicidal effect by foliage application, plastic box (Table 20, symbol I)", "format": "in vivo, wild oat (Avena fatua)", "settings": "320 g/ha, foliage application after 14-day growth, evaluated three weeks after application", "how_it_was_run": "as §1"}, "windgrass [7]": {"system": "windgrass", "assay": "Test Example 5: herbicidal effect by foliage application, plastic box (Table 20, symbol L)", "format": "in vivo, windgrass (Apera spica-venti)", "settings": "320 g/ha, foliage application after 14-day growth, evaluated three weeks after application", "how_it_was_run": "as §1"}, "chickweed [8]": {"system": "chickweed", "assay": "Test Example 4: herbicidal effect by soil treatment (Table 19, symbol P)", "format": "in vivo, common chickweed (Stellaria media)", "settings": "amount of applied herbicide 320 g/ha", "how_it_was_run": "as §2"}, "wild oat [9]": {"system": "wild oat", "assay": "Test Example 4: herbicidal effect by soil treatment (Table 19, symbol I)", "format": "in vivo, wild oat (Avena fatua)", "settings": "amount of applied herbicide 320 g/ha", "how_it_was_run": "as §2"}, "Italian ryegrass [10]": {"system": "Italian ryegrass", "assay": "Test Example 4: herbicidal effect by soil treatment (Table 19, symbol K)", "format": "in vivo, Italian ryegrass (Lolium multiflorum)", "settings": "amount of applied herbicide 320 g/ha", "how_it_was_run": "as §2"}, "rice flat sedge": {"system": "rice flat sedge", "assay": "Test Example 3: herbicidal effect by foliage application, Wagner pot (Table 18, symbol E)", "format": "in vivo, rice flat sedge (Cyperus iria)", "settings": "320 g/ha", "how_it_was_run": "as §3"}, "persian speedwell [11]": {"system": "persian speedwell", "assay": "Test Example 5: herbicidal effect by foliage application, plastic box (Table 20, symbol R)", "format": "in vivo, Persian speedwell (Veronica persica)", "settings": "320 g/ha, foliage application after 14-day growth, evaluated three weeks after application", "how_it_was_run": "as §1"}, "barnyard grass [12]": {"system": "barnyard grass", "assay": "Test Example 4: herbicidal effect by soil treatment (Table 19, symbol H)", "format": "in vivo, barnyard grass (Echinochloa crus-galli)", "settings": "amount of applied herbicide 320 g/ha", "how_it_was_run": "as §2"}, "false cleavers": {"system": "false cleavers", "assay": "Test Example 4: herbicidal effect by soil treatment (Table 19, symbol Q)", "format": "in vivo, false cleavers (Galium spurium)", "settings": "amount of applied herbicide 320 g/ha", "how_it_was_run": "as §2"}, "Italian ryegrass [13]": {"system": "Italian ryegrass", "assay": "Test Example 5: herbicidal effect by foliage application, plastic box (Table 20, symbol K)", "format": "in vivo, Italian ryegrass (Lolium multiflorum)", "settings": "320 g/ha, foliage application after 14-day growth, evaluated three weeks after application", "how_it_was_run": "as §1"}, "Chinese sprangletop": {"system": "Chinese sprangletop", "assay": "Test Example 3: herbicidal effect by foliage application, Wagner pot (Table 18, symbol D)", "format": "in vivo, chinese sprangletop (Leptochloa chinensis)", "settings": "320 g/ha", "how_it_was_run": "as §3"}, "blackgrass [14]": {"system": "blackgrass", "assay": "Test Example 5: herbicidal effect by foliage application, plastic box (Table 20, symbol J)", "format": "in vivo, blackgrass (Alopecurus myosuroides)", "settings": "320 g/ha, foliage application after 14-day growth, evaluated three weeks after application", "how_it_was_run": "as §1"}, "lambsquarters [15]": {"system": "lambsquarters", "assay": "Test Example 4: herbicidal effect by soil treatment (Table 19, symbol O)", "format": "in vivo, lambsquarters (Chenopodium album)", "settings": "amount of applied herbicide 320 g/ha", "how_it_was_run": "as §2"}, "southern crabgrass [16]": {"system": "southern crabgrass", "assay": "Test Example 5: herbicidal effect by foliage application, plastic box (Table 20, symbol F)", "format": "in vivo, southern crabgrass (Digitaria ciliaris)", "settings": "320 g/ha, foliage application after 14-day growth, evaluated three weeks after application", "how_it_was_run": "as §1"}, "green foxtail [17]": {"system": "green foxtail", "assay": "Test Example 5: herbicidal effect by foliage application, plastic box (Table 20, symbol G)", "format": "in vivo, green foxtail (Setaria viridis)", "settings": "320 g/ha, foliage application after 14-day growth, evaluated three weeks after application", "how_it_was_run": "as §1"}, "chickweed [18]": {"system": "chickweed", "assay": "Test Example 5: herbicidal effect by foliage application, plastic box (Table 20, symbol P)", "format": "in vivo, common chickweed (Stellaria media)", "settings": "320 g/ha, foliage application after 14-day growth, evaluated three weeks after application", "how_it_was_run": "as §1"}, "windgrass [19]": {"system": "windgrass", "assay": "Test Example 4: herbicidal effect by soil treatment (Table 19, symbol L)", "format": "in vivo, windgrass (Apera spica-venti)", "settings": "amount of applied herbicide 320 g/ha", "how_it_was_run": "as §2"}, "redroot pigweed [20]": {"system": "redroot pigweed", "assay": "Test Example 4: herbicidal effect by soil treatment (Table 19, symbol N)", "format": "in vivo, redroot pigweed (Amaranthus retroflexus)", "settings": "amount of applied herbicide 320 g/ha", "how_it_was_run": "as §2"}, "southern crabgrass [21]": {"system": "southern crabgrass", "assay": "Test Example 4: herbicidal effect by soil treatment (Table 19, symbol F)", "format": "in vivo, southern crabgrass (Digitaria ciliaris)", "settings": "amount of applied herbicide 320 g/ha", "how_it_was_run": "as §2"}, "persian speedwell [22]": {"system": "persian speedwell", "assay": "Test Example 4: herbicidal effect by soil treatment (Table 19, symbol R)", "format": "in vivo, Persian speedwell (Veronica persica)", "settings": "amount of applied herbicide 320 g/ha", "how_it_was_run": "as §2"}, "velvetleaf [23]": {"system": "velvetleaf", "assay": "Test Example 4: herbicidal effect by soil treatment (Table 19, symbol M)", "format": "in vivo, velvetleaf (Abutilon theophrasti)", "settings": "amount of applied herbicide 320 g/ha", "how_it_was_run": "as §2"}, "green foxtail [24]": {"system": "green foxtail", "assay": "Test Example 4: herbicidal effect by soil treatment (Table 19, symbol G)", "format": "in vivo, green foxtail (Setaria viridis)", "settings": "amount of applied herbicide 320 g/ha", "how_it_was_run": "as §2"}, "redroot pigweed [25]": {"system": "redroot pigweed", "assay": "Test Example 5: herbicidal effect by foliage application, plastic box (Table 20, symbol N)", "format": "in vivo, redroot pigweed (Amaranthus retroflexus)", "settings": "320 g/ha, foliage application after 14-day growth, evaluated three weeks after application", "how_it_was_run": "as §1"}}}
{"compound": "Cc1nn(C)c(=O)c(-c2c(-c3ccc(C#N)cc3)sc3c(F)cccc23)c1O", "note": "[4-052]", "values": [{"measurement": "herbicidal effect on O: lambsquarters (evaluation grade 0-5)", "setting": "lambsquarters [1]", "value": "4 (Herbicidal rate of 70% or more and less than 90%)"}, {"measurement": "herbicidal effect on H: barnyard grass (evaluation grade 0-5)", "setting": "barnyard grass [2]", "value": "5 (Herbicidal rate of 90% or more (almost completely withered))"}, {"measurement": "Herbicidal effect by soil treatment, J: blackgrass", "setting": "blackgrass [3]", "value": "0 (Herbicidal rate of 5% or less (almost no effect))"}, {"measurement": "herbicidal effect on M: velvetleaf (evaluation grade 0-5)", "setting": "velvetleaf [4]", "value": "5 (Herbicidal rate of 90% or more (almost completely withered))"}, {"measurement": "herbicidal effect on barnyard grass (H)", "setting": "barnyard grass [5]", "value": "5 (Herbicidal rate of 90% or more (almost completely withered))"}, {"measurement": "herbicidal effect on I: wild oat (evaluation grade 0-5)", "setting": "wild oat [6]", "value": "0 (Herbicidal rate of 5% or less (almost no effect))"}, {"measurement": "herbicidal effect on L: windgrass (evaluation grade 0-5)", "setting": "windgrass [7]", "value": "0 (Herbicidal rate of 5% or less (almost no effect))"}, {"measurement": "Herbicidal effect by soil treatment, P: chickweed", "setting": "chickweed [8]", "value": "3 (Herbicidal rate of 40% or more and less than 70%)"}, {"measurement": "Herbicidal effect by soil treatment, I: wild oat", "setting": "wild oat [9]", "value": "0 (Herbicidal rate of 5% or less (almost no effect))"}, {"measurement": "Herbicidal effect by soil treatment, K: Italian ryegrass", "setting": "Italian ryegrass [10]", "value": "0 (Herbicidal rate of 5% or less (almost no effect))"}, {"measurement": "herbicidal effect on rice flat sedge (E)", "setting": "rice flat sedge", "value": "4 (Herbicidal rate of 70% or more and less than 90%)"}, {"measurement": "herbicidal effect on R: persian speedwell (evaluation grade 0-5)", "setting": "persian speedwell [11]", "value": "5 (Herbicidal rate of 90% or more (almost completely withered))"}, {"measurement": "Herbicidal effect by soil treatment, H: barnyard grass", "setting": "barnyard grass [12]", "value": "0 (Herbicidal rate of 5% or less (almost no effect))"}, {"measurement": "Herbicidal effect by soil treatment, Q: false cleavers", "setting": "false cleavers", "value": "0 (Herbicidal rate of 5% or less (almost no effect))"}, {"measurement": "herbicidal effect on K: Italian ryegrass (evaluation grade 0-5)", "setting": "Italian ryegrass [13]", "value": "3 (Herbicidal rate of 40% or more and less than 70%)"}, {"measurement": "herbicidal effect on Chinese sprangletop (D)", "setting": "Chinese sprangletop", "value": "3 (Herbicidal rate of 40% or more and less than 70%)"}, {"measurement": "herbicidal effect on J: blackgrass (evaluation grade 0-5)", "setting": "blackgrass [14]", "value": "0 (Herbicidal rate of 5% or less (almost no effect))"}, {"measurement": "Herbicidal effect by soil treatment, O: lambsquarters", "setting": "lambsquarters [15]", "value": "2 (Herbicidal rate of 20% or more and less than 40%)"}, {"measurement": "herbicidal effect on F: southern crabgrass (evaluation grade 0-5)", "setting": "southern crabgrass [16]", "value": "0 (Herbicidal rate of 5% or less (almost no effect))"}, {"measurement": "herbicidal effect on G: green foxtail (evaluation grade 0-5)", "setting": "green foxtail [17]", "value": "5 (Herbicidal rate of 90% or more (almost completely withered))"}, {"measurement": "herbicidal effect on P: chickweed (evaluation grade 0-5)", "setting": "chickweed [18]", "value": "5 (Herbicidal rate of 90% or more (almost completely withered))"}, {"measurement": "Herbicidal effect by soil treatment, L: windgrass", "setting": "windgrass [19]", "value": "0 (Herbicidal rate of 5% or less (almost no effect))"}, {"measurement": "Herbicidal effect by soil treatment, N: redroot pigweed", "setting": "redroot pigweed [20]", "value": "4 (Herbicidal rate of 70% or more and less than 90%)"}, {"measurement": "Herbicidal effect by soil treatment, F: southern crabgrass", "setting": "southern crabgrass [21]", "value": "0 (Herbicidal rate of 5% or less (almost no effect))"}, {"measurement": "Herbicidal effect by soil treatment, R: persian speedwell", "setting": "persian speedwell [22]", "value": "4 (Herbicidal rate of 70% or more and less than 90%)"}, {"measurement": "Herbicidal effect by soil treatment, M: velvetleaf", "setting": "velvetleaf [23]", "value": "1 (Herbicidal rate of 5% or more and less than 20%)"}, {"measurement": "Herbicidal effect by soil treatment, G: green foxtail", "setting": "green foxtail [24]", "value": "0 (Herbicidal rate of 5% or less (almost no effect))"}, {"measurement": "herbicidal effect on N: redroot pigweed (evaluation grade 0-5)", "setting": "redroot pigweed [25]", "value": "5 (Herbicidal rate of 90% or more (almost completely withered))"}]}
